Calls of active or inactive are those of the source. The rule behind the calls is not given here.
Experiments:
[1] = AUC (0 to 6 hrs) in rat plasma at 10 mg/kg, po; type: ADME, organism-based; set-up: time < 6 hr, dose 10 mg/kg, route oral
[2] = target: T1, Proteinase-activated receptor 1 (Homo sapiens, UniProt P25116); assay: Displacement of [3H]haTRAP from PAR-1 isolated from human platelets by liquid scintillation counting analysis
T1 sequence (P25116 whole entry): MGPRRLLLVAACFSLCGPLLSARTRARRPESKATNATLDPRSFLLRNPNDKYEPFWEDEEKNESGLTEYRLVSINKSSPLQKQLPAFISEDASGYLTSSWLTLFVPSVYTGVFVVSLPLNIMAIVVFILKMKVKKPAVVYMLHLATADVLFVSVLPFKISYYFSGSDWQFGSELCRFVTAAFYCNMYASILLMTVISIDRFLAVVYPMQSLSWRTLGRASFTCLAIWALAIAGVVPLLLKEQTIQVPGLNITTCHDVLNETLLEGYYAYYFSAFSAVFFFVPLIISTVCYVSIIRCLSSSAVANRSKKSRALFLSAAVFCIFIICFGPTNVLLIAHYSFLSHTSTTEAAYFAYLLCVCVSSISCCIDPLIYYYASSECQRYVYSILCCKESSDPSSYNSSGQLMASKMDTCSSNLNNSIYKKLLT

Cynomolgus monkey = assay: Ex vivo inhibition of PAR-1 in cynomolgus monkey blood assessed as inhibition of haTRAP-induced platelet aggregation at 1 mg/kg, po up to 24 hrs by aggregometry; type: functional, organism-based; set-up: dose 1 mg/kg; details: Macaca fascicularis
[3] = Aqueous solubility of the compound; type: physicochemical

CCNC(=O)NC[C@@H]1CC[C@@H]2[C@@H](C1)C[C@H]1C(=O)O[C@H](C)[C@H]1[C@H]2/C=C/c1ccc(-c2cccc(F)c2)cn1
AUC(0-t) at 6 h [1]: 567 ng·h/mL
Ki [2]: 12.9 nM

C[C@H]1OC(=O)[C@@H]2C[C@@H]3C[C@H](CNS(C)(=O)=O)CC[C@H]3[C@H](/C=C/c3ccc(-c4cccc(F)c4)cn3)[C@H]12
AUC(0-t) at 6 h [1]: 7760 ng·h/mL
Ki [2]: 15 nM

C[C@H]1OC(=O)[C@@H]2C[C@@H]3C[C@H](CNC(=O)[C@@H]4CCCN4)CC[C@H]3[C@H](/C=C/c3ccc(-c4cccc(F)c4)cn3)[C@H]12
Ki [2]: 24 nM

C[C@H]1OC(=O)[C@@H]2C[C@@H]3C[C@H](CO)CC[C@H]3[C@H](/C=C/c3ccc(-c4cccc(F)c4)cn3)[C@H]12
AUC(0-t) at 6 h [1]: 2670 ng·h/mL
Ki [2]: 8 nM

COC(=O)NC[C@@H]1CC[C@@H]2[C@@H](C1)C[C@H]1C(=O)O[C@H](C)[C@H]1[C@H]2/C=C/c1ccc(-c2cccc(F)c2)cn1
AUC(0-t) at 6 h [1]: 4860 ng·h/mL
Ki [2]: 5 nM
Activity (Cynomolgus monkey): inactive

C[C@H](N)C(=O)NC[C@@H]1CC[C@@H]2[C@@H](C1)C[C@H]1C(=O)O[C@H](C)[C@H]1[C@H]2/C=C/c1ccc(-c2cccc(F)c2)cn1
Ki [2]: 32 nM

CCOC(=O)N[C@@H]1CC[C@@H]2[C@@H](C1)C[C@H]1C(=O)O[C@H](C)[C@H]1[C@H]2/C=C/c1ccc(-c2cccc(F)c2)cn1 [VORAPAXAR]
AUC(0-t) at 6 h [1]: 3060 ng·h/mL
Ki [2]: 8.5 nM

C[C@H]1OC(=O)[C@@H]2C[C@@H]3C[C@H](C(=O)N4CC[C@@H](O)C4)CC[C@H]3[C@H](/C=C/c3ccc(-c4cccc(C(F)(F)F)c4)cn3)[C@H]12
Ki [2]: 180 nM

CCOC(=O)N[C@@H]1CC[C@@H]2[C@@H](C1)C[C@@]1(O)C(=O)O[C@H](C)[C@H]1[C@H]2/C=C/c1ccc(-c2cccc(F)c2)cn1
AUC(0-t) at 6 h [1]: 7430 ng·h/mL
Ki [2]: 19.5 nM
Activity (Cynomolgus monkey): Active

C[C@H]1OC(=O)[C@@H]2C[C@@H]3C[C@H](C(=O)Nc4ccncc4)CC[C@H]3[C@H](/C=C/c3ccc(-c4cccc(C(F)(F)F)c4)cn3)[C@H]12
Ki [2]: 140 nM

CC(=O)NC[C@@H]1CC[C@@H]2[C@@H](C1)C[C@H]1C(=O)O[C@H](C)[C@H]1[C@H]2/C=C/c1ccc(-c2cccc(F)c2)cn1
AUC(0-t) at 6 h [1]: 3810 ng·h/mL
Ki [2]: 12 nM

CC(C)NC(=O)[C@@H]1CC[C@@H]2[C@@H](C1)C[C@H]1C(=O)O[C@H](C)[C@H]1[C@H]2/C=C/c1ccc(-c2cccc(C(F)(F)F)c2)cn1
Ki [2]: 31 nM

CCOC(=O)N1CC[C@@H]2[C@H](C[C@H]3C(=O)O[C@H](C)[C@H]3[C@H]2/C=C/c2ccc(-c3cccc(F)c3)cn2)C1
solubility [3]: < 2 µM

CCS(=O)(=O)NC[C@@H]1CC[C@@H]2[C@@H](C1)C[C@H]1C(=O)O[C@H](C)[C@H]1[C@H]2/C=C/c1ccc(-c2cccc(F)c2)cn1
Ki [2]: 14.5 nM

CCOC(=O)NC[C@@H]1CC[C@@H]2[C@@H](C1)C[C@H]1C(=O)O[C@H](C)[C@H]1[C@H]2/C=C/c1ccc(-c2cccc(F)c2)cn1
AUC(0-t) at 6 h [1]: 1210 ng·h/mL
Ki [2]: 14 nM

C[C@H]1OC(=O)[C@@H]2C[C@@H]3C[C@H](C(=O)N4CC[C@H](O)C4)CC[C@H]3[C@H](/C=C/c3ccc(-c4cccc(C(F)(F)F)c4)cn3)[C@H]12
Ki [2]: 384 nM

CCC(=O)NC[C@@H]1CC[C@@H]2[C@@H](C1)C[C@H]1C(=O)O[C@H](C)[C@H]1[C@H]2/C=C/c1ccc(-c2cccc(F)c2)cn1
AUC(0-t) at 6 h [1]: 7730 ng·h/mL
Ki [2]: 12.5 nM

CNC(=O)[C@@H]1CC[C@@H]2[C@@H](C1)C[C@H]1C(=O)O[C@H](C)[C@H]1[C@H]2/C=C/c1ccc(-c2cccc(C(F)(F)F)c2)cn1
Ki [2]: 25 nM

C[C@H]1OC(=O)[C@@H]2C[C@@H]3C[C@H](C(=O)NCCO)CC[C@H]3[C@H](/C=C/c3ccc(-c4cccc(C(F)(F)F)c4)cn3)[C@H]12
Ki [2]: 98 nM

CCNC(=O)[C@@H]1CC[C@@H]2[C@@H](C1)C[C@H]1C(=O)O[C@H](C)[C@H]1[C@H]2/C=C/c1ccc(-c2cccc(C(F)(F)F)c2)cn1
Ki [2]: 35 nM

C[C@H]1OC(=O)[C@@H]2C[C@@H]3C[C@H](CNC(=O)C4CCNCC4)CC[C@H]3[C@H](/C=C/c3ccc(-c4cccc(F)c4)cn3)[C@H]12
AUC(0-t) at 6 h [1]: 5 ng·h/mL
Ki [2]: 13.5 nM

C[C@H]1OC(=O)[C@@H]2C[C@@H]3C[C@H](CN)CC[C@H]3[C@H](/C=C/c3ccc(-c4cccc(F)c4)cn3)[C@H]12
Ki [2]: 20 nM

C[C@H]1OC(=O)[C@@H]2C[C@@H]3C[C@H](C(=O)Nc4cccnc4)CC[C@H]3[C@H](/C=C/c3ccc(-c4cccc(C(F)(F)F)c4)cn3)[C@H]12
Ki [2]: 239 nM

Reference: ChEMBL document CHEMBL3108665, “Himbacine-derived thrombin receptor antagonists: c7-aminomethyl and c9a-hydroxy analogues of vorapaxar” (ACS Med Chem Lett, 2014)
